Measurements published in ChEMBL document CHEMBL1201862, “PubChem BioAssay data set” (2004).
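1) Cells in 96-well plates. 2) Compound, 48 h, 5 concentrations. 3) Linear interpolation between surrounding doses. 4) Unreached endpoint = highest concentration. At the GI50, growth is halved.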 The source made the active and inactive calls. Cut-off read from the data, not from the text of the source: active = GI50 up to about 1.1 µM and inactive = higher.

Tests used:
Assay in all cases: NCI-60 cell line screen, 48 h
T47D = system: T47D
BT-549 = system: BT-549
TK-10 = system: TK-10
HCT-15 = system: HCT-15
EKVX = system: EKVX
SNB-19 = system: SNB-19
HOP-92 = system: HOP-92
UACC-62 = system: UACC-62
SK-MEL-28 = system: SK-MEL-28
SK-MEL-2 = system: SK-MEL-2
HOP-62 = system: HOP-62
U-251 = system: U-251
SNB-75 = system: SNB-75
MOLT-4 = system: MOLT-4
ACHN = system: ACHN
NCI-H226 = system: NCI-H226
SF-539 = system: SF-539
HT-29 = system: HT-29
RXF 393 = system: RXF 393
RPMI-8226 = system: RPMI-8226
KM12 = system: KM12
OVCAR-4 = system: OVCAR-4
CAKI-1 = system: CAKI-1
Hs-578T = system: Hs-578T
K562 = system: K562
SN12C = system: SN12C
CCRF-CEM = system: CCRF-CEM
IGROV-1 = system: IGROV-1
SR = system: SR
MDA-MB-435 = system: MDA-MB-435
HCC 2998 = system: HCC 2998
OVCAR-5 = system: OVCAR-5
SK-OV-3 = system: SK-OV-3
HL-60 = system: HL-60
LOX IMVI = system: LOX IMVI
UACC-257 = system: UACC-257
MDA-MB-231 = system: MDA-MB-231
SF-295 = system: SF-295
NCI-H460 = system: NCI-H460
M14 = system: M14
UO-31 = system: UO-31
SW-620 = system: SW-620
786-0 = system: 786-0
SK-MEL-5 = system: SK-MEL-5
SF-268 = system: SF-268
A549 = system: A549
MDA-N = system: MDA-N
PC-3 = system: PC-3
HCT-116 = system: HCT-116
COLO 205 = system: COLO 205
MCF7 = system: MCF7
DU-145 = system: DU-145
NCI/ADR-RES = system: NCI/ADR-RES
OVCAR-3 = system: OVCAR-3
NCI-H522 = system: NCI-H522
OVCAR-8 = system: OVCAR-8
Malme-3M = system: Malme-3M
NCI-H23 = system: NCI-H23

Measured: GI50

Cc1nc(-c2cc3cc([N+](=O)[O-])ccc3oc2=O)cs1
inactive: T47D > 100 µM | BT-549 > 100 µM | TK-10 > 100 µM | EKVX > 100 µM | SNB-19 > 100 µM | HOP-92 67.3 µM | UACC-62 > 100 µM | SK-MEL-28 > 100 µM | SK-MEL-2 > 100 µM | HOP-62 > 100 µM | U-251 > 100 µM | SNB-75 1.25 µM | MOLT-4 > 100 µM | ACHN > 100 µM | NCI-H226 > 100 µM | SF-539 > 100 µM | HT-29 > 100 µM | RXF 393 > 100 µM | RPMI-8226 > 100 µM | KM12 > 100 µM | OVCAR-4 > 100 µM | CAKI-1 > 100 µM | Hs-578T > 100 µM | K562 71.8 µM | SN12C > 100 µM | CCRF-CEM 32.9 µM | IGROV-1 > 100 µM | SR 71.3 µM | MDA-MB-435 > 100 µM | HCC 2998 > 100 µM | OVCAR-5 > 100 µM | SK-OV-3 > 100 µM | HL-60 31.8 µM | LOX IMVI > 100 µM | UACC-257 > 100 µM | MDA-MB-231 80.7 µM | SF-295 > 100 µM | NCI-H460 > 100 µM | M14 > 100 µM | UO-31 > 100 µM | SW-620 > 100 µM | 786-0 > 100 µM | SK-MEL-5 > 100 µM | SF-268 > 100 µM | A549 > 100 µM | MDA-N > 100 µM | PC-3 > 100 µM | HCT-116 > 100 µM | COLO 205 > 100 µM | MCF7 > 100 µM | DU-145 > 100 µM
> 100 µM: HCT-15

N#CCN(CC#N)C1CC=CCC1N(CC#N)CC#N (stereo unspecified)
inactive: T47D > 100 µM | BT-549 > 100 µM | NCI/ADR-RES > 100 µM | TK-10 > 100 µM | EKVX > 100 µM | SNB-19 > 100 µM | HOP-92 > 100 µM | UACC-62 > 100 µM | SK-MEL-2 > 100 µM | HOP-62 > 100 µM | U-251 > 100 µM | OVCAR-3 > 100 µM | MOLT-4 > 100 µM | NCI-H522 > 100 µM | ACHN > 100 µM | OVCAR-8 > 100 µM | NCI-H226 > 100 µM | SF-539 > 100 µM | HT-29 > 100 µM | RXF 393 > 100 µM | RPMI-8226 > 100 µM | KM12 > 100 µM | OVCAR-4 > 100 µM | CAKI-1 > 100 µM | Hs-578T > 100 µM | K562 > 100 µM | SN12C > 100 µM | CCRF-CEM > 100 µM | IGROV-1 > 100 µM | MDA-MB-435 > 100 µM | Malme-3M > 100 µM | OVCAR-5 > 100 µM | SK-OV-3 > 100 µM | HL-60 > 100 µM | LOX IMVI > 100 µM | UACC-257 > 100 µM | MDA-MB-231 > 100 µM | SF-295 > 100 µM | NCI-H460 > 100 µM | M14 > 100 µM | UO-31 > 100 µM | SW-620 > 100 µM | 786-0 > 100 µM | SK-MEL-5 > 100 µM | SF-268 > 100 µM | A549 > 100 µM | MDA-N > 100 µM | PC-3 > 100 µM | HCT-116 > 100 µM | COLO 205 > 100 µM | MCF7 > 100 µM | NCI-H23 > 100 µM | DU-145 > 100 µM
> 100 µM: HCT-15

Cc1ccc(S(=O)(=O)c2scc(-c3ccccc3)c2C)cc1
inactive: T47D 36.5 µM | BT-549 98.6 µM | NCI/ADR-RES 35.5 µM | TK-10 > 100 µM | EKVX 37.6 µM | SNB-19 > 100 µM | HOP-92 72.4 µM | UACC-62 > 100 µM | SK-MEL-28 > 100 µM | SK-MEL-2 62.8 µM | HOP-62 > 100 µM | U-251 > 100 µM | OVCAR-3 77.3 µM | SNB-75 > 100 µM | MOLT-4 42.7 µM | NCI-H522 > 100 µM | ACHN 67.6 µM | OVCAR-8 > 100 µM | NCI-H226 > 100 µM | SF-539 61 µM | HT-29 > 100 µM | RXF 393 > 100 µM | RPMI-8226 44.2 µM | KM12 > 100 µM | OVCAR-4 > 100 µM | CAKI-1 > 100 µM | Hs-578T > 100 µM | K562 53 µM | SN12C > 100 µM | IGROV-1 > 100 µM | MDA-MB-435 91 µM | HCC 2998 > 100 µM | Malme-3M > 100 µM | SK-OV-3 > 100 µM | HL-60 45 µM | LOX IMVI 64.3 µM | UACC-257 74 µM | MDA-MB-231 > 100 µM | SF-295 42.8 µM | NCI-H460 > 100 µM | M14 > 100 µM | UO-31 > 100 µM | SW-620 > 100 µM | 786-0 > 100 µM | SK-MEL-5 40.2 µM | SF-268 > 100 µM | A549 57.8 µM | MDA-N > 100 µM | PC-3 89.3 µM | HCT-116 77.1 µM | COLO 205 > 100 µM | MCF7 61.1 µM | NCI-H23 38.1 µM | DU-145 93.5 µM
> 100 µM: HCT-15
